Data: ChEMBL document CHEMBL1149970, “Novel dithiocarbamate carbapenems1 with anti-MRSA activity” (Bioorg Med Chem Lett, 1997)
Converted amounts (≈) assume the structure as drawn.

Columns and labels:
Staphylococcus aureus [1] = test: Compound was tested in vitro for its anti-methicillin-resistant staphylococcus aureus(MRSA); 3.13-12.5; type: functional
Staphylococcus aureus [2] = test: In vitro antibacterial activity against staphylococcus aureus 209P NIHJ JC1 organism; type: functional
[3] = tested on: Staphylococcus epidermidis; test: In vitro antibacterial activity against Staphylococcus epidermidis MB5181a organism; type: functional; conditions: Staphylococcus epidermidis; read-out: MIC
Pseudomonas aeruginosa = test: In vitro antibacterial activity against Pseudomonas aeruginosa MB5002 organism; type: functional
[4] = target: T1, Dipeptidase 1 (Sus scrofa) (UniProt P22412); test: Compound was measured for DHP-I susceptibility; type: functional
T1 sequence (whole entry): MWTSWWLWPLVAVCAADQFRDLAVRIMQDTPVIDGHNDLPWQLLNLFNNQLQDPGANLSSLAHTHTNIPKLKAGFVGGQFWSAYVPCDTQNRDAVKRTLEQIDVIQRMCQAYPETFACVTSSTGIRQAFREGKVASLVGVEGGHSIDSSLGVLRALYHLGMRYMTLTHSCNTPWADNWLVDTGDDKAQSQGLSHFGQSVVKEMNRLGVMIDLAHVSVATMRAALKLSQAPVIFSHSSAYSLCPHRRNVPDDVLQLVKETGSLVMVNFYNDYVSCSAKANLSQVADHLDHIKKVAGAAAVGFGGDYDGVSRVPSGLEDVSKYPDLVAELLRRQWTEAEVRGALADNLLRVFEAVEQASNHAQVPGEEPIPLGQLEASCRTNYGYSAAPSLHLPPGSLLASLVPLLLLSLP

Staphylococcus aureus [5] = test: In vitro antibacterial activity against staphylococcus aureus CSa1009 (Methicillin-resistant strain and b beta-Lactamase producing strain); type: functional
[6] = Compound was measured for binding rate for human serum at a carbapenem concentration of 10 ug/mL; type: ADME; conditions: read-out: Protein binding (converted)
Enterococcus faecalis = test: In vitro antibacterial activity against Enterococcus faecalis MB4996 organism; type: functional
Escherichia coli = test: In vitro antibacterial activity against Escherichia coli NIHJ JC2 organism; type: functional
Staphylococcus aureus [7] = test: Compound was tested in vivo for its anti-methicillin-resistant staphylococcus aureus(MRSA); type: functional
[8] = target: T1, Dipeptidase 1 (Sus scrofa); test: Relative rate of hydrolysis of porcine renal dehydropeptidase-I (DHP-I) to imipenem; type: functional
Staphylococcus aureus [9] = test: In vitro antibacterial activity against staphylococcus aureus BB6294 organism (Methicillin-resistant strain); type: functional
Mus musculus = species on record: Mus musculus; test: Compound was measured for binding rate for mouse serum at a carbapenem concentration of 10 ug/mL; type: functional
Rattus norvegicus [10] = test: Epileptogenicity of compound was measured at 100 ug/rat head by the rat intraventricular assay; 3/5; type: functional
Staphylococcus aureus [11] = test: (§1) PBP-2'' affinity was determined by the competition assay with [14C]benzylpenicillin using membrane isolated from MRSA BB6294 strain; type: functional
Staphylococcus aureus [12] = test: Compound was tested in vitro for its anti-methicillin-resistant staphylococcus aureus(MRSA); 0.78-3.13; type: functional
Rattus norvegicus [13] = test: Epileptogenicity of compound was measured at 100 ug/rat head by the rat intraventricular assay; 0/5; type: functional, Cerebral ventricle
[14] = as §1; type: functional, Staphylococcus aureus
Rattus norvegicus [15] = test: Epileptogenicity of compound was measured at 100 ug/rat head by the rat intraventricular assay; 1/5; type: functional
Staphylococcus aureus [16] = test: Compound was tested in vitro for its anti-methicillin-resistant staphylococcus aureus(MRSA); 3.13-6.25; type: functional

Row | SMILES | MIC (Staphylococcus aureus [2]) [µg/mL] | MIC [3] [µg/mL] | MIC (Pseudomonas aeruginosa) [µg/mL] | DHP-I susceptibility [4] | MIC (Staphylococcus aureus [5]) [µg/mL] | fraction unbound at 10 ug/mL [6] | MIC (Enterococcus faecalis) [µg/mL] | MIC (Escherichia coli) [µg/mL] | ED50 (Staphylococcus aureus [7]) [mg/kg] | DHP-I susceptibility [8] | MIC (Staphylococcus aureus [9]) [µg/mL] | PPB (Mus musculus) [%] | Epileptogenicity (Rattus norvegicus [13]) | IC50 [14] [µg/mL] | MIC (Staphylococcus aureus [16]) [µg/mL] | also measured
1 | C[C@@H](O)[C@H]1C(=O)N2C(C(=O)[O-])=C(SC(=S)N3CC[N+](C)(Cc4ccccc4)CC3)[C@H](C)[C@H]12 | < 0.006 | 1.56 (≈ 3.28 µM) | > 25 | 0.15 | 6.25 (≈ 13.1 µM) | 0.4 | 1.56 (≈ 3.28 µM) | 1.56 (≈ 3.28 µM) | 10 | 0.15 | 3.13 (≈ 6.58 µM) | 82 | – | – | – | MIC (Staphylococcus aureus [1]): 5.36 µg/mL (≈ 11.3 µM); Epileptogenicity (Rattus norvegicus [10]): 3
2 | C[C@@H](O)[C@H]1C(=O)N2C(C(=O)O)=C(SCCNC=N)C[C@H]12 [IMIPENEM ANHYDROUS] | < 0.006 | 100 (≈ 334 µM) | 1.56 (≈ 5.21 µM) | – | 100 (≈ 334 µM) | – | 0.78 (≈ 2.61 µM) | 0.1 (≈ 0.334 µM) | – | 1 | 100 (≈ 334 µM) | – | – | – | – | ED50 (Staphylococcus aureus [7]; Staphylococcus aureus): > 200 mg/kg; IC50 (Staphylococcus aureus [11]): 125 µg/mL (≈ 418 µM)
3 | C[C@@H](O)[C@H]1C(=O)N2C(C(=O)O)=C(SC(=S)N(C)Cc3cccc4ccccc34)[C@H](C)[C@H]12 | < 0.006 | 0.39 (≈ 0.854 µM) | > 25 | 4.41 | 1.56 (≈ 3.42 µM) | 0.01 | 1.56 (≈ 3.42 µM) | 25 (≈ 54.8 µM) | > 50 | 4.41 | 0.78 (≈ 1.71 µM) | 99 | 0 | – | – | MIC (Staphylococcus aureus [12]): 1.15 µg/mL (≈ 2.52 µM)
4 | C[C@@H](O)[C@H]1C(=O)N2C(C(=O)O)=C(SC(=S)N3CCCC3)[C@H](C)[C@H]12 | 0.012 (≈ 0.0337 µM) | 3.13 (≈ 8.78 µM) | > 25 | 3.18 | 6.25 (≈ 17.5 µM) | 0.06 | 12.5 (≈ 35.1 µM) | 6.25 (≈ 17.5 µM) | 6.24 | 3.18 | 3.13 (≈ 8.78 µM) | 95 | – | 5.6 (≈ 15.7 µM) | 4.04 (≈ 11.3 µM) | Epileptogenicity (Rattus norvegicus [15]): 1
5 | C[C@@H](O)[C@H]1C(=O)N2C(C(=O)O)=C(SC(=S)N3CCCC(O)CC3)[C@H](C)[C@H]12 (stereo partly drawn) | 0.012 (≈ 0.03 µM) | 3.13 (≈ 7.81 µM) | > 25 | 2.88 | 3.13 (≈ 7.81 µM) | 0.15 | 3.13 (≈ 7.81 µM) | 12.5 (≈ 31.2 µM) | 2.88 | 2.88 | 3.13 (≈ 7.81 µM) | 92 | 0 | 1.9 (≈ 4.74 µM) | 3.55 (≈ 8.86 µM) | –
